Measurements as given in US20060063828A1 (priority 2004, published 2006).

What was measured:
[1] = test system: VCAM-1; test: In Vitro VCAM-1 Assay (ELISA of VCAM-1 on TNF-α stimulated endothelial cells); type: cell-based; settings: Endothelial cell; primary human aortic (HAEC) or pulmonary (HPAEC) endothelial cells, TNF-α (1 ng/ml), approximately 16 hours
Description: Cell Culture and compound dosing: Cultured primary human aortic (HAEC) or pulmonary (HPAEC) endothelial cells were obtained from Clonetics, Inc., and were used below passage 9. Cells were seeded in 96 well plates such that they would reach 90-95% confluency by the following day. On the following day the cells were stimulated with TNF-α (1 ng/ml) in the presence or absence of compounds dissolved in DMSO such that the final concentration of DMSO is 0.25% or less. To establish a dose curve for each compound, four concentrations in 2- to 5-fold increments were used. Cells were exposed to TNF-α and compounds for approximately 16 hours. The next day the cells were examined under microscope to score for visual signs of toxicity or cell stress.
Following 16 hr exposure to TNF-α and compound the media was discarded and the cells were washed once with Hanks Balanced Salt Solution (HBSS)/Phosphate buffered saline (PBS) (1:1). Primary antibodies against VCAM-1 (0.25 μg/ml in HBSS/PBS+5% FBS) were added and incubated for 30-60 minutes at 37° C. Cells were washed with HBSS/PBS three times, and secondary antibody Horse Radish Peroxidase (HRP)-conjugated goat anti-mouse IgG (1:500 in HBSS/PBS+5% FBS) were added and incubated for 30 minutes at 37° C. Cells were washed with HBSS/PBS four time and TMB substrate were added and incubated at room temperature in the dark until there was adequate development of blue color. The length of time of incubation was typically 5-15 minutes. 2N sulfuric acid was added to stop the color development and the data was collected by reading the absorbance on a BioRad ELISA plate reader at OD 450 nm. The results are expressed as IC50 values (the concentration (micromolar) of compound required to inhibit 50% of the maximal response of the control sample stimulated by TNF-α only).

[2] = test system: Balb/C mice; test: Asthma Protocol (ovalbumin sensitized and challenged mice, bronchoaveolar lavage cell counts); type: in vivo; settings: ovalbumin sensitized and aerosol challenged, lavage fluid cell counts
Description: Balb/C mice (6-8 weeks old) are sensitized to ovalbumin (ova) (8 ug ova absorbed in 3.3 mg Alum inject) on days 0 and 5. On day 12, the mice were aerosol challenged with 0.5% ovalbumin dissolved in sterile saline for 1 h in the AM, and then again in the PM (at least 4 h apart). On day 14, the mice were anesthetized with ketamine/xylazine/acepromazine cocktail, exsanguinated, and then euthanized. Following blood collection, bronchoaveolar lavage was performed on each animal. Total cell counts were conducted on the lavage fluid. The lavage fluid was processed and slides were made by spinning the samples with a cytospin centrifuge. Slides were airdried and stained using Diff-Quik® stain. Cell differentials of the lavage fluid were completed at the conclusion of the study. Statistical analysis involved ANOVA and Tukey-Kramer post hoc tests. Compounds were administered by subcutaneous injection twice daily from day 11-13. The formulations used contained various mixtures of the following excipients (pharmasolve, cremophor RH 40, tween 80, PEG 300). See Biological Table 3

[3] = test system: Male Lewis rats; test: Rheumatoid Arthritis Protocol (adjuvant-induced paw swelling); type: in vivo; settings: M. butyricum adjuvant
Description: Male Lewis rats (150-175 g) from Charles River Laboratories were anesthetized on day 0 with 3-5% isoflurane anesthesia while the tail base was shaved and adjuvant mixture was injected. 50 μL of adjuvant (10 mg/ml M. butyricum in mineral oil) was injected subcutaneously into two sites at the tail base. Paw swelling was monitored using a plethysmometer (UGO Basile), after shaving each leg to the level of the Achilles tendon to mark the level of immersion. A baseline paw measurement for both hindpaws was taken between […] a second measurement was taken on day 8. Onset of paw swelling occurred rapidly between days 8-11 and daily measurements were performed every weekday between day 8 and day 14. Compounds of the invention and vehicles were dosed therapeutically (d8-13) after swelling was confirmed. Solutions were injected subcutaneously or given orally by gavage 1-2 times per day. From day 0, rats were weighed on days 0, 8, 11, and 14 and overall health was monitored. Plasma drug levels, if desired, were measured in tail-vein derived blood samples taken on day 13. On day 14, blood samples were obtained by cardiac puncture, rats were euthanized with CO2, selected organs were removed and both hindpaws were amputated and placed in 10% buffered formalin for histopathological analysis. See Biological Table 2.

SMILES	IC50 [1] [µM]	% Inhibition 6 mg/kg sq, bid, d11-13 [2] [%]	melting point [°C]	% Inhibition 20 mg/kg sq, bid, d8-13 [3] [%]
C=C(C(=O)c1c(OC)ccc(-c2cccs2)c1OC)c1ccc(C(=O)O)cc1 [Example 30, 4-[1-(2,6-Dimethoxy-3-thien-2-yl-benzoyl)-vinyl]-benzoic acid]	< 1	45	193 to 195	77
C=C(C(=O)c1ccc(C(=O)O)cc1)c1cc(-c2cccs2)ccc1OC [Example 8, 4-[2-(2-Methoxy-5-thien-2-yl-phenyl)-acryloyl]-benzoic acid]	< 1	50		44
